Assay [1] has as its system ptosis induced by tetrabenazine. The experiment in a line: Anti-tetrabenazine activity: antagonistic effect on ptosis induced by tetrabenazine. The assay is classed as in vivo, male STD-ddY strain mice. The conditions noted are these: Mus musculus, po; tetrabenazine 70 mg/kg i.p.; Table 2. On the procedure: Pharmacological experiments have been done on the compound of the present invention, some known and novel analogous compounds and an antidepressant on the market, as mentioned below. In the experiments, ED50 was calculated by Litchfield-Wilcoxon method. Male STD-ddY strain mice, weighing 20-25 g, were used in groups of 10 mice each. […] Two hours after the tetrabenazine injection, the degree of eyelid closure (ptosis) was assessed on the basis of macroscopic scoring (0: no closure of the eyelid, 1: 1/4 closure, 2: 2/4 closure, 3: 3/4 closure and 4: complete closure), essentially according to the method of P. A. J. Janssen [Arzneim. Forsch. 15, 104 (1965)]. ED50 was calcuated for each compound.

Assay [2] concerns tremorine-induced tremor. The experiment in a line: Anti-tremorine activity (antagonistic effect on tremorine-induced tremor). The assay is classed as in vivo, male STD-ddY strain mice. On the procedure:
Pharmacological experiments have been done on the compound of the present invention, some known and novel analogous compounds and an antidepressant on the market, as mentioned below. In the experiments, ED50 was calculated by Litchfield-Wilcoxon method.
Male STD-ddY strain mice, weighing 20-25 g, were used in groups of 5 mice each. Each test compound was given orally to the mice in 5 different doses, and 2 hours later 20 mg/kg of tremorine was injected intraperitoneally. Half an hour after the injection of tremorine, each mouse was examined macroscopically for tremor severity, according to the rating scale with the scores 0, 1, 2, and 3 depending on the severity. ED50 was calculated for each compound. The ED50 means the dose of test compound in which the tremorine-induced tremor was inhibited by 50% in severity.

Structures are written as SMILES.

A word on the ED50: it is the dose that gives a 50% effect, or the effect in half of the subjects. For the compound `CCN1CCN(c2cc(-c3ccccc3)c3ccccc3n2)CC1.Cl.Cl` [A, 2-(4-Ethyl-1-piperazinyl)-4-phenylquinoline dihydrochloride], the ED50 in assay [1] turned out to be 1.8 mg/kg; in assay [2] (Mus musculus, po, tremorine 20 mg/kg i.p., read-out: Anti-tremorine activity ED50), 9.7 mg/kg. Further, the “Anti-tremorine activity (in words)” value in assay [2] (p.o.) was “more potent than imipramine and almost comparable to biperiden”.

These data come from US4237135A, “2-(4-Ethyl-1-piperazinyl)-4-phenylquinoline, process for preparation thereof, and composition thereof” (Dainippon Pharmaceutical Co., Ltd., priority 1978, dated 1980).
